Measurements as given in patent publication US7781580B2, “Stilbene derivatives as new cancer therapeutic agents” (Virginia Commonwealth University, priority 2007, dated 2010).

What was measured:
Chk2−/− cells = assay: cell cycle analysis, Chk2-/- MDA-MB231 derivative; assay type: cell-based
Procedure: Cells were treated with various concentrations of stilbene 4a or CA4 for 16 hours followed by PI staining and FACscan analysis. […] A unique feature of stilbene 4a was noted when cells were treated with 30 nM.
Due to the structural similarity between stilbene 4a and CA4, we investigated the difference in the biological activity of these two compounds in MDA-MB231 breast cancer cells and their Chk2−/− derivatives. […] MDA-MB231 cells were treated with 10 nM stilbene 4a or 1 nM CA4. […] However, a difference in cell cycle change was observed following treatment with 30 nM of stilbene 4a versus 3 nM of CA4. […] This was also the case for cells treated with 100 nM stilbene 4a. A significant subG1/0 population was also noted. […] One possible effect could be a DNA damage response, which is a common mechanism of multiple chemotherapeutic agents but not one of pure microtubule-interfering agents such a paclitaxel or vincristine. […] We then obtained conditional Chk1−/− and Chk2−/− cells, which were derived from the same MDA-MB231 cells for the same flow cytometry analysis. […] In contrast, Chk2−/− cells were more sensitive to stilbene 4a. […] This mechanism is not obvious in higher drug concentrations at which the G2 arrest from microtubule interference is dominant. Therefore, in addition to their microtubule interfering effect, stilbenes have another mechanism to induce cell death. Thus, the use of a Chk2 inhibitor in combination with stilbenes may be a viable approach to enhancing the beneficial therapeutic effects of stilbenes.

[1] = tested on: UCI101 ovarian cancer cells (xenograft); assay: UCI101 xenograft in nude mice; assay type: in vivo; settings: mouse, in vivo
Procedure: (a) In vitro sensitivity of UCI101 cells toward three potential stilbene prodrugs, 5a-c, was tested in 96-well plates using Alamar Blue™ assays to determine cell growth inhibition. […] (b) 5b induces cell cycle change and apoptosis in UCI101 cells. Cells were incubated with 5b at 1, 3, 10 μM for 16 hours followed by PI staining and flow cytometry analysis. A subG0/1 population, representing apoptotic cells, appeared along with a decrease of the G1/G2 ratio after cells were treated with 3 μM 5b. Higher concentration (10 μM) of 5b completely killed cells, as was the case with stilbene 4a at […]. (c) Cells treated with stilbene 4a and 5b were stained with phospho-histone 3B, a mitotic marker. The positive signals of phospho-histone 3B were shown in green and nuclei were stained with DAPI in blue. […] (d) In vivo efficacy of 5b compared with stilbene 4a. Nude mice were injected with UCI101 ovarian cancer cells and treated with 7 doses of 5b,c or stilbene 4a every 2-3 days. Tumor volume was calculated and plotted against days.
We next tested whether 5b could be converted into stilbene 4a in circulation. […] Blood was collected at 20, 60 and 240 min after injection for spot check of stilbene 4a level in serum. […] The in vivo efficacy of 5b and 5c was compared to stilbene 4a in a pilot study using 5 mice in each group.

## COc1cc(/C=C\c2ccc(OC)c(N)c2)cc(OC)c1 [4a, (Z)-5-[2-(3,5-Dimethoxy-phenyl)-vinyl]-2-methoxy-phenylamine]
Chk2−/− cells; 10 nM
  cell cycle change at 10 nM: a significant subG1/0 population developed without G2 arrest
Chk2−/− cells; 16 hours
  change of effective concentration versus MDA-MB231: decreased by three fold
[1]
  mouse weight: did not show any significant change
